Drawing on paper PMC10174618, “Monoterpenoid aryl hydrocarbon receptor allosteric antagonists protect against ultraviolet skin damage in female mice” (Nature Communications, 2023), this text covers remaining binding for one compound.

In one test the target is PRKD3 (Homo sapiens, UniProt O94806). In words: biochemical. The arrangement: KINOMEscan scanMAX active site-directed competition binding assay, percent of control, 468 kinases. The following applies: competition binding, percent of control. As to the method: (§1) The KINOMEscan^TM screening platform (scanMAX assay) employs a proprietary active site-directed competition binding assay that quantitatively measures the interactions between test compounds (here 100 μM S-carvone) and 468 human protein kinases. The assay was performed at Eurofins DiscoverX Corp. (Fremont, CA, USA). Blocking protein kinase C (PKC) activity was reported to inhibit the transcription of CYP1A1 but to exert no effect on the nuclear translocation of AhR[26], which was also the case here with carvones. Therefore, we tested whether carvones inhibit PKC catalytic activity. […] We also evaluated the interaction between 100 μM S-carvone and 468 human protein kinases, employing KINOMEscan^TM (scanMAX assay), a proprietary active site-directed competition binding assay. The minimal inhibitory threshold used by the screening platform KINOMEscan^TM is 35% of the control kinase activity. Among 468 kinases tested, 467 were above the 35% cutoff. Tyrosine kinase 2 TK2 (JH2 domain pseudokinase) activity was inhibited to 27% of the control activity, but this kinase is not relevant to the regulation of transcription activity (Fig. 5B; Figure S9). Overall, we excluded the possibility that the effects of carvones on AhR signaling are caused indirectly by the inhibition of the human kinome, particularly PKC.

A further test concerns the target MET(M1250T) (Homo sapiens, UniProt P08581, M1250T). In words: biochemical. Set-up: KINOMEscan scanMAX active site-directed competition binding assay, percent of control, 468 kinases. The following applies: competition binding, percent of control. On the procedure: as §1
The next test addresses AAK1 (Homo sapiens, UniProt Q2M2I8). In words: biochemical. The arrangement: KINOMEscan scanMAX active site-directed competition binding assay, percent of control, 468 kinases. The following applies: competition binding, percent of control. As to the method: as §1
In the next test the target is T1, PIP5K2B (Homo sapiens, UniProt P78356).
T1 construct: gene PIP4K2B
In words: biochemical. Set-up: KINOMEscan scanMAX active site-directed competition binding assay, percent of control, 468 kinases. The following applies: competition binding, percent of control. As to the method:
as §1

The target in another test is AKT1 (Homo sapiens, UniProt P31749). The test is described as follows: biochemical. The following applies: competition binding, percent of control. The arrangement: KINOMEscan scanMAX active site-directed competition binding assay, percent of control, 468 kinases. On the procedure:
as §1

In a further test the target is PRKD2 (Homo sapiens, UniProt Q9BZL6). The test is described as follows: biochemical. The arrangement: KINOMEscan scanMAX active site-directed competition binding assay, percent of control, 468 kinases. The following applies: competition binding, percent of control. On the procedure: as §1
Another test has as its target PIK3CA(C420R) (Homo sapiens, UniProt P42336, C420R). The test is described as follows: biochemical. The arrangement: KINOMEscan scanMAX active site-directed competition binding assay, percent of control, 468 kinases. The following applies: competition binding, percent of control. On the procedure:
as §1

A further test has as its target T2, CDK4-cyclinD1 (Homo sapiens, UniProt P11802).
T2 construct: cyclinD1
The test is described as follows: biochemical. Set-up: KINOMEscan scanMAX active site-directed competition binding assay, percent of control, 468 kinases. The following applies: competition binding, percent of control. As to the method: as §1

The target of another test is ALK (Homo sapiens, UniProt Q9UM73). The test is described as follows: biochemical. The following applies: competition binding, percent of control. The arrangement: KINOMEscan scanMAX active site-directed competition binding assay, percent of control, 468 kinases. On the procedure:
as §1

Another test deals with PIK3CA(H1047L) (Homo sapiens, UniProt P42336, H1047L). The test is described as follows: biochemical. The arrangement: KINOMEscan scanMAX active site-directed competition binding assay, percent of control, 468 kinases. The following applies: competition binding, percent of control. On the procedure: as §1
A further test deals with MERTK (Homo sapiens, UniProt Q12866). The test is described as follows: biochemical. Set-up: KINOMEscan scanMAX active site-directed competition binding assay, percent of control, 468 kinases. The following applies: competition binding, percent of control. As to the method:
as §1

Another test has as its target T3, YES (Homo sapiens, UniProt P07947).
T3 construct: gene YES1
In words: biochemical. The following applies: competition binding, percent of control. Set-up: KINOMEscan scanMAX active site-directed competition binding assay, percent of control, 468 kinases. As to the method:
as §1

A further test concerns the target STK33 (Homo sapiens, UniProt Q9BYT3). In words: biochemical. Set-up: KINOMEscan scanMAX active site-directed competition binding assay, percent of control, 468 kinases. The following applies: competition binding, percent of control. On the procedure:
as §1

In a further test the target is BMPR1B (Homo sapiens, UniProt O00238). In words: biochemical. The following applies: competition binding, percent of control. The arrangement: KINOMEscan scanMAX active site-directed competition binding assay, percent of control, 468 kinases. As to the method:
as §1

A further test deals with PIK3CA(Q546K) (Homo sapiens, UniProt P42336, Q546K). In words: biochemical. The following applies: competition binding, percent of control. Set-up: KINOMEscan scanMAX active site-directed competition binding assay, percent of control, 468 kinases. As to the method: as §1
Another test deals with MAP4K4 (Homo sapiens, UniProt O95819). In words: biochemical. Set-up: KINOMEscan scanMAX active site-directed competition binding assay, percent of control, 468 kinases. The following applies: competition binding, percent of control. As to the method: as §1
For a further test, the target named is TGFBR2 (Homo sapiens, UniProt P37173). The test is described as follows: biochemical. The following applies: competition binding, percent of control. Set-up: KINOMEscan scanMAX active site-directed competition binding assay, percent of control, 468 kinases. On the procedure:
as §1

In the next test the target is T4, MEK6 (Homo sapiens, UniProt P52564).
T4 construct: gene MAP2K6
In words: biochemical. Set-up: KINOMEscan scanMAX active site-directed competition binding assay, percent of control, 468 kinases. The following applies: competition binding, percent of control. On the procedure:
as §1

Another test deals with T5, FAK (Homo sapiens, UniProt Q05397).
T5 construct: gene PTK2
The test is described as follows: biochemical. Set-up: KINOMEscan scanMAX active site-directed competition binding assay, percent of control, 468 kinases. The following applies: competition binding, percent of control. On the procedure: as §1

A further test concerns the target KIT-autoinhibited (Homo sapiens, UniProt P10721). In words: biochemical. Set-up: KINOMEscan scanMAX active site-directed competition binding assay, percent of control, 468 kinases. The following applies: competition binding, percent of control. As to the method: as §1
For the next test, the target named is SYK (Homo sapiens, UniProt P43405). In words: biochemical. The arrangement: KINOMEscan scanMAX active site-directed competition binding assay, percent of control, 468 kinases. The following applies: competition binding, percent of control. As to the method:
as §1

Test [1] deals with T6, Tyrosine kinase 2 TK2 (JH2 domain pseudokinase) (Homo sapiens, UniProt P29597).
T6 construct: gene TYK2; JH2 domain pseudokinase
The test is described as follows: KINOMEscan competition binding, single concentration […]. The following applies: read-out: % of control at 100 μM.

Sequence of KIT-autoinhibited (P10721 whole entry): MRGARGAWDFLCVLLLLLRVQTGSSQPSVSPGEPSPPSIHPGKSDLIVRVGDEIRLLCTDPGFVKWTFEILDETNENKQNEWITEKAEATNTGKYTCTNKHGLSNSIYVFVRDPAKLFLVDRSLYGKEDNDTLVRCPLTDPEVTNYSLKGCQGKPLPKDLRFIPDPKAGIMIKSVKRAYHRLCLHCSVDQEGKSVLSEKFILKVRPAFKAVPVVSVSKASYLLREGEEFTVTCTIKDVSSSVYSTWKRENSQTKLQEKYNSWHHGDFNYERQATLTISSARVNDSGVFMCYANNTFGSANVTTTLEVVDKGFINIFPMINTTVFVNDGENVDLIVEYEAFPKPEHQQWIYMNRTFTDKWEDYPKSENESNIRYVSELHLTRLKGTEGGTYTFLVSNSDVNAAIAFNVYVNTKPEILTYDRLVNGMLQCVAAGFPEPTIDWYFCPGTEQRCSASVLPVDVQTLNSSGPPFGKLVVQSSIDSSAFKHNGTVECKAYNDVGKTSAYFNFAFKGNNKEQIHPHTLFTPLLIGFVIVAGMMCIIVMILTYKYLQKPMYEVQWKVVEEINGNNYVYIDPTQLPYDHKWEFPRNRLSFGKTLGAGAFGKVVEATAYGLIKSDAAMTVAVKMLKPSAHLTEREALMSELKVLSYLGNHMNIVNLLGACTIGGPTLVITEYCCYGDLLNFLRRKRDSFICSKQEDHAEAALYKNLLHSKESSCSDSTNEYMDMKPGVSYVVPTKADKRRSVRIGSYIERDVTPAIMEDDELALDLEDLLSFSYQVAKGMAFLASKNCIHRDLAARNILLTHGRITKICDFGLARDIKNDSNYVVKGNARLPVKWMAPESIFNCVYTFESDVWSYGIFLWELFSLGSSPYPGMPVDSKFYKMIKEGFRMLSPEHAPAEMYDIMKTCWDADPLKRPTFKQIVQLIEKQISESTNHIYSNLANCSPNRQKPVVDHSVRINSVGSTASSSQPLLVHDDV
Sequence of BMPR1B (O00238 whole entry): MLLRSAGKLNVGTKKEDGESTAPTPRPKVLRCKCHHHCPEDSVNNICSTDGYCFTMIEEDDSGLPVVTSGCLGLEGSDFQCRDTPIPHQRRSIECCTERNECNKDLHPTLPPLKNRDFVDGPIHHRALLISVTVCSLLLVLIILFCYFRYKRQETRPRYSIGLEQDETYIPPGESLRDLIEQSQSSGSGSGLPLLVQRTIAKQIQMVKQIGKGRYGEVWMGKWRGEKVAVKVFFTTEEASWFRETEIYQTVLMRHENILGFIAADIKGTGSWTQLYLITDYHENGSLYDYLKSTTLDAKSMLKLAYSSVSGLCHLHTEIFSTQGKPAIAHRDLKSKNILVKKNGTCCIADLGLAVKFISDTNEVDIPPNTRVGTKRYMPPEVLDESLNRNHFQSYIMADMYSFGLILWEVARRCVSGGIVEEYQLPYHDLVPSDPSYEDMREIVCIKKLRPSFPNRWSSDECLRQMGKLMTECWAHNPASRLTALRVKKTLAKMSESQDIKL
Sequence of ALK (Q9UM73 whole entry): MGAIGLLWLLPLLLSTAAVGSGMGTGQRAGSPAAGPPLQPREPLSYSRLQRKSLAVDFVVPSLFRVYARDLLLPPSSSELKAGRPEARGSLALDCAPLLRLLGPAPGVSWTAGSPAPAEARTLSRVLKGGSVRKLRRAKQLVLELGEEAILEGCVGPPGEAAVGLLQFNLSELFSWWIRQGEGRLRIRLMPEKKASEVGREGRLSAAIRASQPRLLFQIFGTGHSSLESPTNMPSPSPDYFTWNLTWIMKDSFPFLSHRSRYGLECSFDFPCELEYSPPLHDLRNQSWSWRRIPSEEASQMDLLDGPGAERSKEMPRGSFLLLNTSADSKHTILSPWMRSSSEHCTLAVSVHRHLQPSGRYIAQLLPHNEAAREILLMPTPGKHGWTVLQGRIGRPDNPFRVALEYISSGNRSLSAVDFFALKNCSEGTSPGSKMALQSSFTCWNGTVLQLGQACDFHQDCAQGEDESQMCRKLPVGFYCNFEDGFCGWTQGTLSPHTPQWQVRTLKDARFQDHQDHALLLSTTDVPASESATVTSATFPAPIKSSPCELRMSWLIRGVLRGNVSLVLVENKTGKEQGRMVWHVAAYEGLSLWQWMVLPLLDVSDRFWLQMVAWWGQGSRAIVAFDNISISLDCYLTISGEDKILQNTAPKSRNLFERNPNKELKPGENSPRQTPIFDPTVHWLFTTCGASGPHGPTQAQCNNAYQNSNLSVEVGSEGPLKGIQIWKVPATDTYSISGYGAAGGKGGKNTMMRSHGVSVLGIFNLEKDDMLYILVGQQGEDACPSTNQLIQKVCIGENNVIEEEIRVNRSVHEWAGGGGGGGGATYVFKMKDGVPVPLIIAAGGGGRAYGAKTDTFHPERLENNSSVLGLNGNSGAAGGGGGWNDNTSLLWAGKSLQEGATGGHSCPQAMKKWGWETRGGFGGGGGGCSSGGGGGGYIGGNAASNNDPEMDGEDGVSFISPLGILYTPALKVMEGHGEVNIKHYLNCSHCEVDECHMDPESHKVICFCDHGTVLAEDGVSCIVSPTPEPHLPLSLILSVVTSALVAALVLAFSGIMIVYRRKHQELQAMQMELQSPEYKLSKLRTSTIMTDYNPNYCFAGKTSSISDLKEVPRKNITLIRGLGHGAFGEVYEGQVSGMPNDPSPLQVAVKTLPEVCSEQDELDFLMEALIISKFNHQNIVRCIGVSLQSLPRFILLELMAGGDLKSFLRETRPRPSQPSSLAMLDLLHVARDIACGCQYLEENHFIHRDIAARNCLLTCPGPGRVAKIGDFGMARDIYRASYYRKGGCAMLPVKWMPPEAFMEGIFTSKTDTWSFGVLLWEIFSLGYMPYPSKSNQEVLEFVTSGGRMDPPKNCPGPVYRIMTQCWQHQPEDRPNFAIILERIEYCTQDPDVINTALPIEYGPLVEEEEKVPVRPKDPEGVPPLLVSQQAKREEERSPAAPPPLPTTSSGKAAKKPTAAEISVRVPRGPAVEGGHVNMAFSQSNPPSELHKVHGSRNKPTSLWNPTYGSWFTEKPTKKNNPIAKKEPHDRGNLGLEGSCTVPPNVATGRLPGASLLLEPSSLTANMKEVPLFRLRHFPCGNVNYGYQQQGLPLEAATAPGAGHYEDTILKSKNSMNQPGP
Sequence of PIK3CA(H1047L) (P42336 whole entry H1047L): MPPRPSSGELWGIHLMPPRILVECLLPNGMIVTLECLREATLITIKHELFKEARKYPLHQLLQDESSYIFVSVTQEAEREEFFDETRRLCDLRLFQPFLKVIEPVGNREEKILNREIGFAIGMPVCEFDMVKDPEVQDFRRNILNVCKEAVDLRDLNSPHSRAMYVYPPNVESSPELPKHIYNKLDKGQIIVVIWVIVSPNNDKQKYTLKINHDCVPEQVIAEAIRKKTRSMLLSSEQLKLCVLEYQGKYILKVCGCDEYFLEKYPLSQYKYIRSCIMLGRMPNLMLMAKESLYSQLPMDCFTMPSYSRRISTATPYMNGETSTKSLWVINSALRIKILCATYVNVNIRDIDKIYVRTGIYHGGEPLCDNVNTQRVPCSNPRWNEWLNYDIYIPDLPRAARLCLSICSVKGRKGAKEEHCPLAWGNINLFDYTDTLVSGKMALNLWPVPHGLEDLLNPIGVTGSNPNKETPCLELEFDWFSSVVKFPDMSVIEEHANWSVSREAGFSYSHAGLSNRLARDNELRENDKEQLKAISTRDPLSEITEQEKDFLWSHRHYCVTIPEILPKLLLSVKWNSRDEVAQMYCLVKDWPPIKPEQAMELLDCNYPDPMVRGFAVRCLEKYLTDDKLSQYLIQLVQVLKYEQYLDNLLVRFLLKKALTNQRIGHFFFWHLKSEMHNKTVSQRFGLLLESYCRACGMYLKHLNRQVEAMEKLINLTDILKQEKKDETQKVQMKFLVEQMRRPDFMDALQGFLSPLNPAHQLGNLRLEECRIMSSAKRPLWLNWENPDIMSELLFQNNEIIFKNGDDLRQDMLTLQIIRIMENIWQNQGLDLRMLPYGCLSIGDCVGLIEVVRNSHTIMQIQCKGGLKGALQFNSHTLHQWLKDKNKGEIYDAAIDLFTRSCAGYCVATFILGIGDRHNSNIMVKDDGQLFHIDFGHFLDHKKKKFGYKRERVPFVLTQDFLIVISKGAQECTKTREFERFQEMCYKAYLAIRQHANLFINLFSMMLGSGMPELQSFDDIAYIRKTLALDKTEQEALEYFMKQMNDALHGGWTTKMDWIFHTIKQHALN
Sequence of AKT1 (P31749 whole entry): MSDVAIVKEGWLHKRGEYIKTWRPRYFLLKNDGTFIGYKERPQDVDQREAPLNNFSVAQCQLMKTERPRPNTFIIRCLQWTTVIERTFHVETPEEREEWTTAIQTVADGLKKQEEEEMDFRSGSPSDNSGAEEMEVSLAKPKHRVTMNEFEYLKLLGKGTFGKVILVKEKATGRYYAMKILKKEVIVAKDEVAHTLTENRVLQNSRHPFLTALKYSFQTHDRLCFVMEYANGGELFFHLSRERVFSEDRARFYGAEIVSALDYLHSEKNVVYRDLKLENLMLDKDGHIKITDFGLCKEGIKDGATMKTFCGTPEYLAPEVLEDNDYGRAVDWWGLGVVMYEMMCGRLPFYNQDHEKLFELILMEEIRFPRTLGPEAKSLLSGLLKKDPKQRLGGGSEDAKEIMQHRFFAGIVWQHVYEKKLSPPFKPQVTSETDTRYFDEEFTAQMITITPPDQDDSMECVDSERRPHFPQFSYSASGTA
T6 sequence (P29597 589-875 limits assumed): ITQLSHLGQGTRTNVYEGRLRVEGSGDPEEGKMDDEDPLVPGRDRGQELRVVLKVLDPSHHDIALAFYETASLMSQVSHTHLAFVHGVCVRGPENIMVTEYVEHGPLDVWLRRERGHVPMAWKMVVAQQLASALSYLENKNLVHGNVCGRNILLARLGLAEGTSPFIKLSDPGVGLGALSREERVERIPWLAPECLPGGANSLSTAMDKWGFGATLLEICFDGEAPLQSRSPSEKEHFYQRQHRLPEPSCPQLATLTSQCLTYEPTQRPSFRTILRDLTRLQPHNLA
Sequence of PIK3CA(Q546K) (P42336 whole entry Q546K): as the sequence (P42336 whole entry H1047L) above, with Q546K, L1047H counted along it
Sequence of PIK3CA(C420R) (P42336 whole entry C420R): as the sequence (P42336 whole entry H1047L) above, with C420R, L1047H counted along it

With `C=C(C)[C@H]1CC=C(C)C(=O)C1` [S-carvone], the remaining binding at 100 µM is 92% at PRKD3; 73% on MET(M1250T); 77% on AAK1; 100% on PIP5K2B; 84% on AKT1; 100% on PRKD2. Further, the remaining binding at 100 µM is 96% at PIK3CA(C420R); 73% at CDK4-cyclinD1; 73% at ALK; 74% at PIK3CA(H1047L); 90% at MERTK; 84% on YES. Besides, the remaining binding at 100 µM on STK33 stood at 100%; on BMPR1B, 74%; on PIK3CA(Q546K), 83%; on MAP4K4, 85%; on TGFBR2, 77%; on MEK6, 82%. Besides, the remaining binding at 100 µM was determined as 81% at FAK, 74% on KIT-autoinhibited, 75% on SYK and 27% in [1].
